Numbered stars: 1 amine (or outer) side, 2 acyl side, 3 side chain; on linkers, the order of the positions; unused ones are H or OH. Bridge positions count the residues as written; N and C are the ends. Square brackets hold non-standard residues; d marks the D form. Peptide text beside a SMILES is read from it. X12 = NC(=O)CC[C@@H](N[*:1])C(=O)C[C@@H](Cc1cnc[nH]1)C(=O)[*:2]; X13 = O=C(/C=N/OCCCCCCOC1=CC(C[*:3])=CC(C[*:2])C1)[*:1]; X3 = O=C(/C=N/OCCCCCCOc1cc(C[*:2])cc(C[*:3])c1)[*:1]; X1 = O=C(C=NOCCCCCCOc1cc(C[*:2])cc(C[*:3])c1)[*:1]; X5 = O=C(CCCCCCOc1cc(C[*:2])cc(C[*:3])c1)[*:1]; tBuAla = CC(C)(C)C[C@H](N)C(=O)O; Met(O) = CS(=O)CC[C@H](N)C(=O)O; hSer = N[C@@H](CCO)C(=O)O; Nle = CCCC[C@H](N)C(=O)O

One data set has as its target T1, rh-integrin α4β7/LPAM-1 (Homo sapiens, UniProt P13612+P26010).
T1 sequence (P13612 34-977 limits assumed): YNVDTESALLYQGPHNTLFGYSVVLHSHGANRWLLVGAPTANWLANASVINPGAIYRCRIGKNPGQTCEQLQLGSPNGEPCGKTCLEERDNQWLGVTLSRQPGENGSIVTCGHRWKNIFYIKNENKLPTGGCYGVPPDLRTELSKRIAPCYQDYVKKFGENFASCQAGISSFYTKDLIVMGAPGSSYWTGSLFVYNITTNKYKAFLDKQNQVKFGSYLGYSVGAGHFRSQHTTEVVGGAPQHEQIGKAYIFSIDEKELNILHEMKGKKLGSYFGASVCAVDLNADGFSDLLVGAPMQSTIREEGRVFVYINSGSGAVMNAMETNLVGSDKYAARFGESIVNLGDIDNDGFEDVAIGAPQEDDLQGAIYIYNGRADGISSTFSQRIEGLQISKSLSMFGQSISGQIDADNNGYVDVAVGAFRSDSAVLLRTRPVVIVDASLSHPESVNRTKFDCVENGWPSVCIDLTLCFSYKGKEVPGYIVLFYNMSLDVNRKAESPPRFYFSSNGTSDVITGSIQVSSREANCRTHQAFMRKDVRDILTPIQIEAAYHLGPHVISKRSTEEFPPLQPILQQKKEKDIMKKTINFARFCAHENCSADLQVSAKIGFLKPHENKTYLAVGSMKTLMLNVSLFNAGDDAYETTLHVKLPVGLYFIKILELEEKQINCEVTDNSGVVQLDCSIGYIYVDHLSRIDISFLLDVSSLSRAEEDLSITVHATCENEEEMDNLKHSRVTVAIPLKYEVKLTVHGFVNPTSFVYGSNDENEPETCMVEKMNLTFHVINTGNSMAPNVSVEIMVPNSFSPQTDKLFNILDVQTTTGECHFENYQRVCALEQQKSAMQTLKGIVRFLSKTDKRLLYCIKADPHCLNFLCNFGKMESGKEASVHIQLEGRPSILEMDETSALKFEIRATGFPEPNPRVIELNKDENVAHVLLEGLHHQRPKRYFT
T1 sequence (P26010 20-723 limits assumed): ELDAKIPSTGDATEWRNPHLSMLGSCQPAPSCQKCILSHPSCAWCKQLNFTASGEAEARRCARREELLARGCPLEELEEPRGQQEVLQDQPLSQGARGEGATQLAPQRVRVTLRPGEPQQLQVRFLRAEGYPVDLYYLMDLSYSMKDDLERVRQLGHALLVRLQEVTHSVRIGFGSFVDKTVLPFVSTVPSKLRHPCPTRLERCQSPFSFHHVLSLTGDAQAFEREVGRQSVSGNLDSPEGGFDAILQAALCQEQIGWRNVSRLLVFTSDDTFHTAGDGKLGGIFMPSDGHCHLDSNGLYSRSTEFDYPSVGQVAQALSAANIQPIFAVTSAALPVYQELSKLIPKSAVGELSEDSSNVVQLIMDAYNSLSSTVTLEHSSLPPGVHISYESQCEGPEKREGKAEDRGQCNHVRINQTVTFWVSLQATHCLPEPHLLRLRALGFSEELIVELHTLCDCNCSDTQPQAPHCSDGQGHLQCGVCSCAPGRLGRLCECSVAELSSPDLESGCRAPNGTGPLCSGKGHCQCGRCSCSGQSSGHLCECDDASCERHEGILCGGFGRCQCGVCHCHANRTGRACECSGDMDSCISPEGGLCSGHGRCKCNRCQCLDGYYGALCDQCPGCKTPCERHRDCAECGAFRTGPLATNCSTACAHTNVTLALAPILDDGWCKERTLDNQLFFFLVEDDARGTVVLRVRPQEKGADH
Put plainly: α4β7-MadCAM Competition ELISA (Example 4). Type of data set: binding. The following applies: Table 3 Representative compounds; inhibition of MAdCAM binding to coated α4β7; read-out: IC50. As for the experimental part:
After washing with wash buffer, 200 μL assay buffer was added to each well and incubated for one hour at 28° C. After another wash with wash buffer, 100 μL of a MAdCAM and peptide mixture in assay buffer was added to each well and incubated for one hour at 28° C., followed by washing with wash buffer.
On the technique in general: An ELISA detects its analyte on a solid surface through an enzyme-linked reagent.
`CCCC[C@@H]1NC(=O)[C@H](CO)NC(=O)[C@@H]2CSSC[C@@H](C(=O)N[C@@H](Cc3c[nH]c4ccccc34)C(=O)N[C@@H](CCC(N)=O)C(N)=O)NC(=O)[C@H](CC(C)C)NC(=O)[C@@H]([C@H](C)O)NC(=O)[C@H](CC(=O)O)NC(=O)[C@H](CO)NC(=O)[C@H](CCCNC(=N)N)NC(=O)[C@H](CSCC(=O)N[C@@H](CCCNC(=N)N)C(=O)N2)NC(=O)[C@H](CC(C)C)NC(=O)[C@H](CC(=O)O)NC1=O` [compound 76, Disulfide- RCS{Nle}DICRS DTLCWQ] ({CH2CO}-RCS[Nle]DLCRSD[dT]LCWQ-NH2; disulfide 2-13; thioether N-7): the IC50 (commonly the concentration that inhibits the measured activity by half) was 34.3 µM.
Consider `COCC[C@@H]1NC(=O)[C@@H]2CCCN2C(=O)[C@@H]2CSCc3cc(cc(c3)OCCCCCCC(=O)NCC(=O)N[C@@H](CCCNC(=N)N)C(=O)N2)CSC[C@@H](C(N)=O)NC(=O)[C@H](CCC(=O)O)NC(=O)[C@H](CCC(N)=O)NC(=O)[C@@H]2CCCN2C(=O)[C@H](CC(C)(C)C)NC(=O)[C@H](CC(=O)O)NC1=O` [compound 80, TSLC7-GQCP{Hse(OMe)} D{tBuAla}PQEC] (GRCP[hSer](Me)D[tBuAla]PQEC-NH2; linker N-3-11 via X5), for which the IC50 was 55.9 µM.
Regarding `C[C@@H]1NC(=O)/C=N/OCCCCCCOC2=CC3=CC(CSC[C@H](NC1=O)C(=O)N[C@@H](C)C(=O)N[C@@H](Cc1c[nH]c4ccccc14)C(=O)N[C@@H](Cc1cnc[nH]1)C(=O)N[C@H](CCC(N)=O)C(=O)C[C@@H](Cc1cnc[nH]1)C(=O)N[C@@H](C)C(=O)N[C@H](C(N)=O)CSC3)C2` [compound 57, TSL6- SACAWHQHAC] (ACAWH[X12]AC-NH2; linker N-2-8 via X13), the 50% inhibitory concentration (IC50) amounted to 3.89 µM.
For `CC[C@H](C)[C@@H]1NC(=O)[C@H](C)NC(=O)[C@H](CC[S+](C)[O-])NC(=O)[C@@H]2CCCN2C(=O)[C@@H]2CSCc3cc(cc(c3)OCCCCCCO/N=C/C(=O)N[C@@H](CCC(N)=O)C(=O)N2)CSC[C@@H](C(N)=O)NC(=O)[C@H]([C@@H](C)O)NC(=O)[C@@H]2CCCN2C1=O` (stereo partly shown) [compound 99, TSL6-SQCP{Ox-Met} AIPTC] (QCP[Met(O)]AIPTC-NH2; linker N-2-9 via X3), the IC50 was found to be 152 µM.

System in another data set: not listed separately
Put plainly: Simulated Intestinal Fluid Assay. The following applies: FaSSIF, LCMS/MS. The method, then:
Studies were carried out in simulated intestinal fluid (SIF) to evaluate the intestinal stability of the peptide molecules of the peptides of the instant disclosure. A Fasted State Simulated Intestinal Fluid (FaSSIF) reagent was prepared according to methods known in the art (including addition of the enzyme pancreatin), to which stock peptide solutions were added, incubated, quenched, and analyzed using LCMS/MS.
Percent remaining at each time point was calculated based on the peak area response ratio of test to compound to internal standard. Half-lives were calculated by fitting to a first-order exponential decay equation using GraphPad.
Turning to `C[C@@H](O)[C@H](NC(=O)[C@H](CC(=O)O)NC(=O)[C@@H]1CCCN1C(=O)[C@H](Cc1ccc(O)cc1)NC(=O)[C@H](CS)NC(=O)[C@H](CC(=O)O)NC(=O)[C@@H](N)CO)C(=O)N[C@@H](Cc1ccc(O)cc1)C(=O)N[C@@H](Cc1c[nH]cn1)C(=O)N[C@@H](CS)C(=O)O` [SEQ ID NO. 13] (H-SDCYPDTYHC-OH), the Comments result is listed as “No peak”.

The same data set, now with this note: simulated gi fluid.
Consider `CC(C)C[C@@H]1NC(=O)[C@@H]2CCCN2C(=O)[C@H](Cc2c[nH]c3ccccc23)NC(=O)[C@@H]2CCCN2C(=O)[C@@H]2CSCc3cc(cc(c3)OCCCCCCON=CC(=O)N[C@@H](CCC(=O)O)C(=O)N2)CSC[C@@H](C(=O)O)NC(=O)[C@H](CCC(N)=O)NC(=O)[C@@H]2CCCN2C1=O` [SEQ ID NO. 15] (ECPWPLPQC-OH; linker N-2-9 via X1), for which the half-life (commonly the time needed for the level to fall by half in the phase considered) was 1.07 h.
`CC(C)C[C@@H]1NC(=O)[C@@H]2CSCc3cc(cc(c3)OCCCCCCO/N=C/C(=O)N[C@@H](Cc3ccccc3)C(=O)N2)CSC[C@@H](C(N)=O)NC(=O)[C@H](CO)NC(=O)[C@H](C)NC(=O)[C@H](CCC(=O)O)NC(=O)[C@H](Cc2ccc(O)cc2)NC(=O)CNC1=O` [SEQ ID NO: 22] (FCLGYEASC-NH2; linker N-2-9 via X3) had a half-life of 1.2 h.
As for `CSCC[C@@H]1NC(=O)[C@H](CCCNC(=N)N)NC(=O)CNC(=O)[C@H](Cc2ccc(O)cc2)NC(=O)[C@H](Cc2c[nH]c3ccccc23)NC(=O)[C@H](CCC(N)=O)NC(=O)[C@@H]2CSCc3cc(cc(c3)OCCCCCCON=CC(=O)N[C@@H](C)C(=O)N2)CSC[C@@H](C(=O)O)NC1=O` [SEQ ID NO. 21] (ACQWYGRMC-OH; linker N-2-9 via X1), the half-life is 0.328 h.
Same read-out and setting: the value for `C[C@@H](O)[C@@H]1NC(=O)[C@H](CC(=O)O)NC(=O)[C@@H]2CCCN2C(=O)[C@H](Cc2ccc(O)cc2)NC(=O)[C@@H](NC(=O)[C@H](CC(=O)O)NC(=O)[C@@H](N)CO)CSSC[C@@H](C(N)=O)NC(=O)[C@H](Cc2c[nH]cn2)NC(=O)[C@H](Cc2ccc(O)cc2)NC1=O` [SEQ ID NO. 14] (H-SDCYPDTYHC-NH2; disulfide 3-10) was 1.32 h; that for `CC(C)C[C@@H]1NC(=O)[C@@H]2CSCc3cc(cc(c3)OCCCCCCON=CC(=O)N[C@@H](CCCCN)C(=O)N2)CSC[C@@H](C(=O)O)NC(=O)[C@H]([C@@H](C)O)NC(=O)[C@H](CCC(N)=O)NC(=O)[C@H](CCC(=O)O)NC(=O)[C@H](Cc2c[nH]c3ccccc23)NC(=O)CNC1=O` [SEQ ID NO. 20] (KCLGWEQTC-OH; linker N-2-9 via X1) was 1.36 h; that for `CSCC[C@H](NC(=O)[C@@H](N)CO)C(=O)N[C@H]1CSSC[C@@H](C(=O)O)NC(=O)[C@H](Cc2c[nH]cn2)NC(=O)[C@H](C(C)C)NC(=O)[C@H](CCCCN)NC(=O)[C@H](Cc2ccc(O)cc2)NC(=O)[C@H](CC(C)C)NC(=O)[C@@H]2CCCN2C1=O` [SEQ ID NO. 5] (H-SMCPLYKVHC-OH; disulfide 3-10) was 0.393 h.
Same read-out and setting: the value for `CSCC[C@@H]1NC(=O)C=NOCCCCCCOc2cc3cc(c2)CSC[C@H](NC1=O)C(=O)N1CCC[C@H]1C(=O)N[C@@H](CC(C)C)C(=O)N[C@@H](Cc1ccc(O)cc1)C(=O)N[C@@H](CCCCN)C(=O)N[C@@H](C(C)C)C(=O)N[C@@H](Cc1c[nH]cn1)C(=O)N[C@H](C(=O)O)CSC3` [SEQ ID NO. 8] (MCPLYKVHC-OH; linker N-2-9 via X1) was 0.137 h; that for `N=C(N)NCCC[C@@H]1NC(=O)CNC(=O)[C@H](Cc2ccc(O)cc2)NC(=O)[C@H](Cc2c[nH]c3ccccc23)NC(=O)[C@H](Cc2c[nH]cn2)NC(=O)[C@@H]2CSCc3cc(cc(c3)OCCCCCCON=CC(=O)N[C@@H](CCC(N)=O)C(=O)N2)CSC[C@@H](C(=O)O)NC(=O)[C@H](CO)NC1=O` [SEQ ID NO. 19] (QCHWYGRSC-OH; linker N-2-9 via X1) was more than 8 h; that for `C[C@@H](O)[C@@H]1NC(=O)[C@H](CC(=O)O)NC(=O)[C@@H]2CCCN2C(=O)[C@H](Cc2ccc(O)cc2)NC(=O)[C@@H]2CSCc3cc(cc(c3)OCCCCCCON=CC(=O)N[C@@H](CC(=O)O)C(=O)N2)CSC[C@@H](C(=O)O)NC(=O)[C@H](Cc2c[nH]cn2)NC(=O)[C@H](Cc2ccc(O)cc2)NC1=O` [SEQ ID NO. 16] (DCYPDTYHC-OH; linker N-2-9 via X1) was 3.45 h.
Molecule `O=C(O)CCCc1ccc(N(CCCl)CCCl)cc1` [Chlorambucil, chlorambucil, reference compound] came in with a half-life of 0.627 h.

The target in the next data set is T1, rh-integrin α4β7/LPAM-1. Nature of the data set: Competition Binding Assay (competition ELISA, Example 1).
Details: not given
Molecule `CC[C@H](C)[C@@H]1NC(=O)[C@H](CC(=O)O)NC(=O)[C@H](CCSC)NC(=O)[C@@H]2CCCN2C(=O)[C@@H]2CSCc3cc(cc(c3)OCCCCCCO/N=C/C(=O)N[C@@H](CCC(N)=O)C(=O)N2)CSC[C@@H](C(N)=O)NC(=O)[C@H]([C@@H](C)O)NC(=O)[C@@H]2CCCN2C1=O` [SEQ ID NO: 23] (QCPMDIPTC-NH2; linker N-2-9 via X3; C-terminus assumed) returned an IC50 of 1.32 µM.

The values above are taken from patent publication US20230145835A1, “Modulators of Alpha-4-beta-7 Integrin and MAdCAM” (48HD Biopharma Inc., priority 2021, published 2023).
